Test system: CAE9577
Assay: Na current measurement in CAE9577 expressed oocytes
Assay type: cell-based, human

SMILES: NC1=N[C@H](O)[C@H]2[C@H]3O[C@]4(O)O[C@@H]([C@@H](O)[C@@]2(N1)[C@@H]4O)[C@]3(O)CO [TTX, Tetrodotoxin]
- inhibition of the inward Na current: partially inhibited

Source: patent US20040234978A1, “Novel potential-dependent cation channel protein” (priority 2001, published 2004)
